Values joined by “and” are separate entries in the source; they are usually repeats but may differ in a detail not shown here. Equal values may be shown once.

This assay concerns 935938-334-R-J1-PDC complex spheroid viability. Briefly: Anticancer human tumor 935938-334-R-J1-PDC patient-derived small intestine adenocarcinoma cell line growth inhibition [POLQ]. The settings on record: for viability, T/C: stronger effect = lower value. The method, then: Multicellular complex tumor spheroid response to Polymerase (POL) inhibitors (novobiocin, ART-558, RP6685) in combination with a variety of drugs and investigational agents in selected tumor cell lines
The POL inhibitors (novobiocin, ART-558, and RP6685) were evaluated both individually and in combination with standard of care and investigational anticancer small molecules within a complex spheroid model of solid tumors. . Complex spheroids include a stromal component modeled by human endothelial cells (HUVEC) and fibroblasts modeled by human mesenchymal stem cells (MSCs). The concentration ranges selected for each drug and investigational agent were based upon clinically achievable concentrations if the clinical Cmax of the agent was known.
Compounds. The drugs and investigational agents: novobiocin (NSC847541), ART-558 (NSC835418), RP-6685 (NSC848927), peposertib (NSC802822), ceralasertib (NSC780249), elimusertib (NSC800525), camonsertib (NSC841442), AZD-1390 (NSC803789), olaparib (NSC753686), talazoparib (NSC767125), rucaparib (NSC756644), sotorasib (NSC818433), MRTX-1133 (NSC836407), SN-38 (NSC673596), topotecan (NSC609699), epotoside (NSC141540), doxorubicin (NSC123127), gemcitabine (NSC613327), 5-fluorouracil (NSC19893), paclitaxel (NSC125973), vemurafenib (NSC761431), MSA-2 (NSC828583), SN-011 (NSC837082), adavosertib (NSC754352), prexasertib (NSC758257), carboplatin (NSC241240) and oxaliplatin (NSC266046), were obtained from the National Cancer Institute (NCI) Developmental Therapeutics Program Chemical Repository (21). The FDA-approved anticancer drug set is available from the Developmental Therapeutics Program at https://dtp.cancer.gov/organization/dscb/obtaining/. […] The stock solutions were prepared in dimethyl sulfoxide (DMSO, Sigma-Aldrich, St. Louis, MO, cat. D2650), except for the platinum compounds which were prepared in saline (Quality Biological, Gaithersburg, MD, cat. 114-055-101), at 800-fold the tested concentration and stored at -70 degrees C prior to their use. All drugs and investigational agents were tested over a range starting from a high concentration at or near the clinical Cmax and decreasing in half-log increments. If the clinical Cmax for an agent had not been determined, the highest concentration tested was 10 microM, except for SN-38, which was tested at a high concentration of 1 microM.
Cell Culture. All cells were maintained in an incubator at 37 degrees C and 5% CO2 with 95% humidity. The PDC lines were cultured according to standard operating procedures established by the NCI PDMR (https://pdmr.cancer.gov). Table 3 of the manuscript, lists the cell lines along with the number of the three cell types plated to form the mct-spheroids and media for tumor cell growth. After thawing, all PDC lines, except 997537-175-T-J1-PDC and 415267-285-R-J2-PDC, were cultured in Matrigel-coated flasks prepared with a working solution of 1X Ham's F-12 nutrient mix, without supplementation (Thermo Fisher Scientific, cat. 11765054), 100 U/mL penicillin-streptomycin (Thermo Fisher Scientific, cat. 15140122), and 2.5% Matrigel (Corning Inc., Corning, NY, cat. 354248) for the first three passages. The two PDC lines 997537-175-T-J1-PDC and 415267-285-R-J2-PDC were cultured on uncoated flasks. The 857933-349-R-J2-PDC line was cultured in 6C/Colon 1B media containing advanced DMEM/F-12 (Thermo Fisher Scientific, cat. 12634028), 10 mM HEPES (Thermo Fisher Scientific, cat. 15630080), 1X GlutaMAX supplement (Thermo Fisher Scientific, cat. 35050061), 0.1 mg/mL primocin (InvivoGen, San Diego, CA, cat. ant-pm-2), 10% defined fetal bovine serum, heat inactivated (HyClone Laboratories Inc., Logan, UT, cat. SH30070.03HI), 50% L-WRN conditioned media (ATCC, cat. CRL-3276), 1.25 mM N-Acetyl-L-cysteine (Sigma-Aldrich, cat. A9165), 10 mM nicotinamide (Sigma-Aldrich, cat. N0636), 1X B-27 supplement (Thermo Fisher Scientific, cat. 17504044), 1X N-2 supplement (Thermo Fisher Scientific, cat. […]
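Also: spheroids exposed to drugs for seven days before viability read.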
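For viability, T/C in this document: 100% = DMSO vehicle control wells.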

For the molecule `CC(=O)O[C@H]1C(=O)[C@@]2(C)[C@H]([C@H](OC(=O)c3ccccc3)[C@]3(O)C[C@H](OC(=O)[C@H](O)[C@@H](NC(=O)c4ccccc4)c4ccccc4)C(C)=C1C3(C)C)[C@]1(OC(C)=O)CO[C@@H]1C[C@@H]2O` + Nc1ccc(C#CCN(C(=O)Cc2ncc(C(F)(F)F)cc2C(F)(F)F)c2ccc(F)cc2)nn1, the IC50 (curve of first compound, second compound 0.0316 µM) was less than 9.49 nM; the half-maximal inhibitory concentration (IC50) (curve of first compound, second compound 0.1 µM) was less than 9.49 nM; the IC50 (curve of first compound, second compound 0.316 µM) was less than 9.49 nM; the IC50 (curve of first compound, second compound 1 µM) was less than 9.49 nM; the IC50 (curve of first compound, second compound 3.16 µM) was less than 9.49 nM; the IC50 (curve of first compound, second compound 10 µM) is less than 9.49 nM. Also, the viability, T/C reads like this: (second compound 0.0316 µM, first compound 0.00949 µM) 44.6%; (second compound 0.0316 µM, first compound 0.03 µM) 17.6%; (second compound 0.0316 µM, first compound 0.0949 µM) 13.5%; (second compound 0.0316 µM, first compound 0.3 µM) 18.1%; (second compound 0.0316 µM, first compound 0.949 µM) 16.1%; (second compound 0.0316 µM, first compound 3 µM) 16.3%. Further, the viability, T/C was 34% (second compound 0.1 µM, first compound 0.00949 µM); 18% (second compound 0.1 µM, first compound 0.03 µM); 17.1% (second compound 0.1 µM, first compound 0.0949 µM); 17.1% (second compound 0.1 µM, first compound 0.3 µM); 17.8% (second compound 0.1 µM, first compound 0.949 µM); 21.7% (second compound 0.1 µM, first compound 3 µM). For the same molecule, the viability, T/C reads like this: (second compound 0.316 µM, first compound 0.00949 µM) 43%; (second compound 0.316 µM, first compound 0.03 µM) 18.5%; (second compound 0.316 µM, first compound 0.0949 µM) 14.1%; (second compound 0.316 µM, first compound 0.3 µM) 11.7%; (second compound 0.316 µM, first compound 0.949 µM) 15.3%; (second compound 0.316 µM, first compound 3 µM) 15.9%. Besides, the viability, T/C is 30% (second compound 1 µM, first compound 0.00949 µM); 21.3% (second compound 1 µM, first compound 0.03 µM); 17.1% (second compound 1 µM, first compound 0.0949 µM); 15.5% (second compound 1 µM, first compound 0.3 µM); 14.3% (second compound 1 µM, first compound 0.949 µM); 16.9% (second compound 1 µM, first compound 3 µM). The viability, T/C (second compound 3.16 µM, first compound 0.00949 µM) is 40.9%; the viability, T/C (second compound 3.16 µM, first compound 0.03 µM) was 18.5%; the viability, T/C (second compound 3.16 µM, first compound 0.0949 µM) is 16.3%; the viability, T/C (second compound 3.16 µM, first compound 0.3 µM) is 13.8%; the viability, T/C (second compound 3.16 µM, first compound 0.949 µM) is 18.4%; the viability, T/C (second compound 3.16 µM, first compound 3 µM) was 19.4%. Besides, the viability, T/C is, setting by setting: (second compound 10 µM, first compound 0.00949 µM) 47.3%; (second compound 10 µM, first compound 0.03 µM) 18.7%; (second compound 10 µM, first compound 0.0949 µM) 16.7%; (second compound 10 µM, first compound 0.3 µM) 15.5%; (second compound 10 µM, first compound 0.949 µM) 15.8%; (second compound 10 µM, first compound 3 µM) 17.5%.
In the case of `CCc1cc2c(N3CCc4c(cc(Cn5ccnc5)cc4-c4cn(C)nc4C(F)(F)F)C3=O)cc(C)nc2c(OC)n1`, the viability, T/C is, setting by setting: (compound 0.0316 µM) 63.3% and 77.3% and 86.5%; (compound 0.1 µM) 98.4% and 69.4% and 64.3%; (compound 0.316 µM) 72.6% and 62.2% and 67.1%; (compound 1 µM) 65.5% and 59.4% and 67.5%; (compound 3.16 µM) 65.5% and 71.2% and 67.9%; (compound 10 µM) 57.6% and 57% and 58.1%. For the same molecule, the IC50 (curve of compound) is more than 10000 nM.
For the molecule `C#Cc1c(F)ccc2cc(O)cc(-c3ncc4c(N5CC6CCC(C5)N6)nc(OCC56CCCN5CC(F)C6)nc4c3F)c12` (stereo not drawn), the viability, T/C is 94.5% and 100% and 95% (compound 0.0316 µM); 109% and 87.3% and 101% (compound 0.1 µM); 78.4% and 86.1% and 85.4% (compound 0.316 µM); 59.5% and 69% and 70.2% (compound 1 µM); 64.2% and 46.4% and 44% (compound 3.16 µM); 28.9% and 34.7% and 36.1% (compound 10 µM). Besides, where the note is “curve of compound”, the IC50 was 3790 nM and 2850 nM and 2510 nM.
As for `O=C(c1cc(Cc2n[nH]c(=O)c3ccccc23)ccc1F)N1CCN(C(=O)C2CC2)CC1`, the viability, T/C by setting is: (compound 0.0316 µM) 88.4% and 80.5% and 75%; (compound 0.1 µM) 103% and 70.2% and 77.2%; (compound 0.316 µM) 100% and 67.5% and 112%; (compound 1 µM) 94.9% and 67.4% and 68.7%; (compound 3.16 µM) 72% and 64.6% and 73.7%; (compound 10 µM) 54.9% and 55.4% and 55.1%. Also, under “curve of compound”, the IC50 is more than 10000 nM.

Usually IC50 stands for the midpoint of a concentration-inhibition curve. As usually defined, the viability, T/C is the ratio of treated to control.

Values taken from PubChem BioAssay AID1963829 (Molecular Pharmacology Branch, DTP, NCI, 2024).
